According to patent US9416111B2, “Substituted diazine and triazine spleen tyrosine kinease (Syk) inhibitors” (Merck Sharp & Dohme Corp., priority 2012, dated 2016):
“And” between values parts separate entries of the source, which are not always exact repeats. Equal values may be shown once.

Target: T1, recombinant human GST-SYK (Homo sapiens, UniProt P43405)
T1 construct: purchased Carna Biosciences 08-176
Assay: Homogeneous Time-Resolved Fluorescence (HTRF) assay for the recombinant human Syk enzyme
Format: biochemical
Details: GST-hSYK 5 pM, ATP 25 μM, IC50 rated in classes, read-out: rhSYK Activity
Method in brief: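 HTRF read-out, via Europium anti-phosphotyrosine antibody and SA-APC added with EDTA, measured phosphorylation of a 250 nM biotinylated substrate after 45 min at room temperature with 25 μM ATP and 5 mM magnesium. Enzyme was 5 pM GST-hSYK, preincubated 10 min with compound in Tris pH 7.5 buffer containing DTT.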

Cc1cc(Nc2nccc(C(F)(F)F)n2)cc(-c2cnc(NC3(C(=O)O)CC3)nc2)c1 [Example 2.3, 1-{[5-(3-methyl-5-{[4-(trifluoromethyl)pyrimidin-2-yl]amino}phenyl)pyrimidin-2-yl]amino}cyclopropanecarboxylic acid] and Cc1cc(Nc2nccc(C(F)(F)F)n2)cc(-c2cnc(NC3(C(=O)O)CCC3)nc2)c1 [Example 2.4, l-{[5-(3-methyl-5-{[4-(trifluoromethyl)pyrimidin-2-yl]amino}phenyl)pyrimidin-2-yl]amino}cyclobutanecarboxylic acid] cannot be ordered by IC50: under 0.1 µM for the first, under 0.1 µM for the second.

Cc1cc(Nc2nccc(C(F)(F)F)n2)cc(-c2cnc(NC(C)c3ccccn3)nc2)c1 (centres unmarked) [Example 2.21, N-(3-methyl-5-{2-[(1-pyridin-2-ylethyl)amino]pyrimidin-5-yl}phenyl)-4-(trifluoromethyl)pyrimidin-2-amine] and Cc1cc(Nc2nccc(C(F)(F)F)n2)cc(-c2cnc(NC(C)CO)nc2)c1 (centres unmarked) [Example 2.58, 2-{[5-(3-methyl-5-{[4-(trifluoromethyl)pyrimidin-2-yl]amino}phenyl)pyrimidin-2-yl]amino}propan-1-ol] cannot be ordered by IC50: under 0.1 µM for the first, under 0.1 µM for the second.

Cc1cc(Nc2nccc(C(F)(F)F)n2)cc(-c2cnc(NC(C)(C)C(=O)O)nc2)c1 [Example 2.2, 2-methyl-N-[5-(3-methyl-5-{[4-(trifluoromethyl)pyrimidin-2-yl]amino}phenyl)pyrimidin-2-yl]alanine] and CNC(=O)CNc1ncc(-c2cc(C)cc(Nc3nccc(C(F)(F)F)n3)c2)cn1 [Example 2.44, N-methyl-N~2~-[5-(3-methyl-5-{[4-(trifluoromethyl)pyrimidin-2-yl]amino}phenyl)pyrimidin-2-yl]glycinamide] cannot be ordered by IC50: under 0.1 µM for the first, under 0.1 µM for the second.

Cc1cc(Nc2nccc(C(F)(F)F)n2)cc(-c2cnc(N3CCC(C(=O)O)CC3)nc2)c1 [Example 2.79, 1-[5-(3-methyl-5-{[4-(trifluoromethyl)pyrimidin-2-yl]amino}phenyl)pyrimidin-2-yl]piperidine-4-carboxylic acid] and Cc1cc(Nc2nccc(C(F)(F)F)n2)cc(-c2cnc(N3CC[C@H]3C(=O)O)nc2)c1 [Example 2.6, (2S)-l-[5-(3-methyl-5-{[4-(trifluoromethyl)pyrimidin-2-yl]amino}phenyl)pyrimidin-2-yl]azetidine-2-carboxylic acid] cannot be ordered by IC50: under 0.1 µM for the first, under 0.1 µM for the second.

CCOC(=O)CCc1cnc(-c2cc(C)cc(Nc3nccc(C4CC4)n3)c2)cn1 [Example 3.11, ethyl 3-(5-{3-[(4-cyclopropylpyrimidin-2-yl)amino]-5-methylphenyl}pyrazin-2-yl)propanoate] and CCOC(=O)CCc1ncc(-c2cc(C)cc(Nc3nccc(C4CC4)n3)c2)cn1 [Example 1.6, ethyl 3-(5-{3-[(4-cyclopropylpyrimidin-2-yl)amino]-5-methylphenyl}pyrimidin-2-yl)pronanoate] cannot be ordered by IC50: under 0.1 µM for the first, under 0.1 µM for the second.

Cc1cc(Nc2nccc(C(F)(F)F)n2)cc(-c2cnc(NC3CCS(=O)(=O)C3)nc2)c1 (centres unmarked) [Example 2.16, N-(3-{2-[(1,1-dioxidotetrahydrothiophen-3-yl)amino]pyrimidin-5-yl}-5-methylphenyl)-4-(trifluoromethyl)pyrimidin-2-] and Cc1cc(Nc2nccc(C(F)(F)F)n2)cc(-c2cnc(NCCS(C)(=O)=O)nc2)c1 [Example 2.48, N-[3-methyl-5-(2-{[2-(methylsulfonyl)ethyl]amino}pyrimidin-5-yl)phenyl]-4-(trifluoromethyl)pyrimidin-2-amine] cannot be ordered by IC50: under 0.1 µM for the first, under 0.1 µM for the second.

CC(=O)NCCCNc1ncc(-c2cc(C)cc(Nc3nccc(C(F)(F)F)n3)c2)cn1 [Example 2.71, N-(3-{[5-(3-methyl-5-{[4-(trifluoromethyl)pyrimidin-2-yl]amino}phenyl)pyrimidin-2-yl]amino}propyl)acetamide] and Cc1cc(Nc2nccc(C(F)(F)F)n2)cc(-c2cnc(NCc3cn(C)cn3)nc2)c1 [Example 2.63, N-[3-methyl-5-(2-{[(1-methyl-1H-imidazol-4-yl)methyl]amino}pyrimidin-5-yl)phenyl]-4-(trifluoromethyl)pyrimidin-2-amine] cannot be ordered by IC50: under 0.1 µM for the first, under 0.1 µM for the second.

First: CCCOC1CCCN(c2ncc(-c3cc(C)cc(Nc4nccc(C(F)(F)F)n4)c3)cn2)C1 (centres unmarked) [Example 2.53, N-{3-methyl-5-[2-(3-propoxypiperidin-1-yl)pyrimidin-5-yl]phenyl}-4-(trifluoromethyl)pyrimidin-2-amine]
Second: Cc1cc(Nc2nccc(C(F)(F)F)n2)cc(-c2cnc(N3CCCC(C)(O)C3)nc2)c1 (centres unmarked) [Example 2.27, 3-methyl-1-[5-(3-methyl-5-{[4-(trifluoromethyl)pyrimidin-2-yl]amino}phenyl)pyrimidin-2-yl]piperidin-3-ol]
The IC50 of the first is higher: 0.1 to 1 µM for the first, under 0.1 µM for the second. The second is the more potent here.

First: CCOC(=O)CCc1cc(-c2cccc(Nc3nccc(C(F)(F)F)n3)c2)ncn1 [Example 3.44, ethyl 3-[6-(3-{[4-(trifluoromethyl)pyrimidin-2-yl]amino}phenyl)pyrimidin-4-yl]propanoate]
Second: O=C(O)CCc1cnc(-c2cccc(Nc3nccc(C(F)(F)F)n3)c2)cn1 [Example 3.4, 3-[5-(3-{[4-(trifluoromethyl)pyrimidin-2-yl]amino}phenyl)pyrazin-2-yl]propanoic acid]
The IC50 of the first is higher: 1 to 10 µM for the first, 0.1 to 1 µM for the second. The second is the more potent here.

Cc1cc(Nc2nccc(C(F)F)n2)cc(-c2cnc([C@H](C)[C@H]3CC[C@H](C(=O)O)[C@H](C)C3)nc2)c1 (single isomer, unassigned) [Example 7.5] and Cc1cc(Nc2nccc(C(F)(F)F)n2)cc(-c2cnc(N(C)[C@@H](C)C(=O)O)nc2)c1 [Example 2.9, N-methyl-N-[5-(3-methyl-5-{[4-(trifluoromethyl)pyrimidin-2-yl]amino}phenyl)pyrimidin-2-yl]-L-alanine] cannot be ordered by IC50: under 0.1 µM for the first, under 0.1 µM for the second.

First: Cc1cc(Nc2nccc(C(F)(F)F)n2)cc(-c2cnc(N3CCC(C)(O)CC3)nc2)c1 [Example 2.29, 4-methyl-1-[5-(3-methyl-5-{[4-(trifluoromethyl)pyrimidin-2-yl]amino}phenyl)pyrimidin-2-yl]piperidin-4-ol]
Second: Cc1cc(Nc2nccc(C(F)(F)F)n2)cc(-c2cnc(N3CCC[C@H]3C(=O)O)nc2)c1 [Example 2.5, 1-[5-(3-methyl-5-{[4-(trifluoromethyl)pyrimidin-2-yl]amino}phenyl)pyrimidin-2-yl]-L-proline]
The IC50 of the first is higher: 0.1 to 1 µM for the first, under 0.1 µM for the second.

Cc1cc(Nc2nccc(C(F)F)n2)cc(-c2cnc([C@H](C)[C@H]3CC[C@H](C(=O)O)[C@H](C)C3)nc2)c1 (single isomer, unassigned) [Example 7.6] and Cc1cc(Nc2nccc(C(F)(F)F)n2)cc(-c2cnc(N(C)CCO)nc2)c1 [Example 2.30, 2-{methyl[5-(3-methyl-5-{[4-(trifluoromethyl)pyrimidin-2-yl]amino}phenyl)pyrimidin-2-yl]amino}ethanol] cannot be ordered by IC50: under 0.1 µM for the first, under 0.1 µM for the second.

First: Cc1cc(Nc2nccc(C(F)(F)F)n2)cc(-c2ccc(N3CCC(C(N)=O)CC3)nn2)c1 [Example 3.31, 1-[6-(3-methyl-5-{[4-(trifluoromethyl)pyrimidin-2-yl]amino}phenyl)pyridazin-3-yl]piperidine-4-carboxamide]
Second: Cc1cc(Nc2nccc(C(F)(F)F)n2)cc(-c2cccnn2)c1 [Example 3.28, N-(3-methyl-5-pyridazin-3-ylphenyl)-4-(trifluoromethyl)pyrimidin-2-amine]
The IC50 of the first is lower: under 0.1 µM for the first, 0.1 to 1 µM for the second.

Cc1cc(Nc2nccc(C(F)(F)F)n2)cc(-c2cnc(N3CCN(CC(F)(F)F)CC3)nc2)c1 [Example 2.65, N-(3-methyl-5-{2-[4-(2,2,2-trifluoroethyl)piperazin-1-yl]pyrimidin-5-yl}phenyl)-4-(trifluoromethyl)pyrimidin-2-amine] and COCC1CCCCN1c1ncc(-c2cc(C)cc(Nc3nccc(C(F)(F)F)n3)c2)cn1 (centres unmarked) [Example 2.49, N-(3-{2-[2-(methoxymethyl)piperidin-1-yl]pyrimidin-5-yl}-5-methylphenyl)-4-(trifluoromethyl)pyrimidin-2-amine] fall in the same range of IC50: 0.1 to 1 µM for the first, 0.1 to 1 µM for the second.

Cc1cc(Nc2nccc(C(F)F)n2)cc(-c2cnc([C@H](C)[C@H]3CC[C@H](C(=O)O)[C@H](C)C3)nc2)c1 (single isomer, unassigned) [Example 7.3] and Cc1cc(Nc2nccc(C3CC3)n2)cc(-c2cncc(CCC(=O)O)n2)c1 [Example 3.22, 3-(6-{3-[(4-cyclopropylpyrimidin-2-yl)amino]-5-methylphenyl}pyrazin-2-yl)propanoic acid] cannot be ordered by IC50: under 0.1 µM for the first, under 0.1 µM for the second.

First: Cc1cc(Nc2nccc(C(F)(F)F)n2)cc(-c2cnc(NCC3COCCO3)nc2)c1 (centres unmarked) [Example 2.19, N-(3-{2-[(1,4-dioxan-2-ylmethyl)amino]pyrimidin-5-yl}-5-methylphenyl)-4-(trifluoromethyl)pyrimidin-2-amine]
Second: Cc1cc(Nc2nccc(C(F)(F)F)n2)cc(-c2ncccn2)c1 [Example 3.23, N-(3-methyl-5-pyrimidin-2-ylphenyl)-4-(trifluoromethyl)pyrimidin-2-amine]
The IC50 of the first is lower: under 0.1 µM for the first, 0.1 to 1 µM for the second. The first is the more potent here.

First: Cc1cc(Nc2nccc(C(F)(F)F)n2)cc(-c2ccc(-c3cccc(C(=O)O)c3)nn2)c1 [Example 3.32, 3-[6-(3-methyl-5-{[4-(trifluoromethyl)pyrimidin-2-yl]amino}phenyl)pyridazin-3-yl]benzoic acid]
Second: Cc1cc(Nc2nccc(C)n2)cc(-c2ccc(CCC(=O)O)nn2)c1 [Example 3.41, 3-(6-{3-methyl-5-[(4-methylpyrimidin-2-yl)amino]phenyl}pyridazin-3-yl)propanoic acid]
The IC50 of the first is lower: under 0.1 µM for the first, 0.1 to 1 µM for the second. The first is the more potent here.

In the case of Cc1cc(Nc2nccc(C(F)(F)F)n2)cc(-c2cnccn2)c1 [Example 3.2, N-(3-methyl-5-pyrazin-2-ylphenyl)-4-(trifluoromethyl)pyrimidin-2-amine], the IC50 is reported as 0.1 to 1 µM and < 0.1 µM.
For Cc1cc(Nc2nccc(C)n2)cc(-c2cnc(CCC(=O)O)nc2)c1 [Example 3.55, 3-(5-{3-methyl-5-[(4-methylpyrimidin-2-yl)amino]phenyl}pyrimidin-2-yl)propanoic acid], the IC50 was 0.1 to 1 µM and < 0.1 µM.

Same assay, conditions: GST-hSYK 5 pM, ATP 25 μM, values in text, read-out: IC50

With Cc1cc(Nc2nccc(C(F)F)n2)cc(-c2cnc([C@H](C)[C@H]3CC[C@H](C(=O)O)[C@H](C)C3)nc2)c1 (single isomer, unassigned) [Example 7.5] the IC50 was 0.0008 µM.
Compound Cc1cc(Nc2nccc(C(F)F)n2)cc(-c2cnc([C@H](C)[C@H]3CC[C@H](C(=O)O)[C@H](C)C3)nc2)c1 (single isomer, unassigned) [Example 7.6] has an IC50 of 0.0007 µM.
